Reference: patent US5360803A, “Composition and method for treating cancer” (Dan Farber Cancer Institute, priority 1992, dated 1994)
Read-outs that look alike come from different tables or passages of the source.

Legend:
[1] = system: CX-1 cells; test: selective killing assay, colony number reduced to 50% of control, human colon carcinoma cell line CX-1; type: cell-based; settings: for IC50: Homo sapiens, CX-1, Table III; for IC50 / CX-1 (IC50): human colon carcinoma, 24 hours treatment, colony count after 7 to 10 days; for CX-1 (IC50): Table III;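 as to all read-outs here: colonies stained with crystal violet and counted, control cells given medium alone, exposure at 37 °C, normal monkey kidney epithelial CV-1 cells as the non-cancer comparator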
Method: (§1) Human colon carcinoma cell line CX-1 or normal monkey kidney epithelial cell line CV-1 was chosen as representatives of cancer cells and normal cells, respectively. […] CX-1 cells (2,000 cells/well) and CV-1 cells (1,000 cells/well) were plated in 24-well plastic culture plates. […] The control received culture media only. Cells were treated with compounds of General Formulas (I) to (V) at 37° C. for 24 hours. After rinsing with fresh culture medium three times, the cells were further incubated at 37° C. for 7 to 10 days. Cell colonies were fixed and stained with 2% crystal violet in 70% ethanol for 10 minutes and rinsed in water. […] The selectivity is defined as the ratio of IC50 for CV-1 and IC50 for CX-1.

[2] = system: CV-1 cells; test: selective killing assay, colony number reduced to 50% of control, normal monkey kidney epithelial cell line CV-1; type: cell-based; settings: 24 hours treatment; for IC50: Primates
Text: The control received culture media only.

[3] = system: LOX cells; test: colony assay of Example 1 with human melanoma LOX cell line; type: cell-based; settings: for Selectivity: CV-1/LOX; for IC50: Homo sapiens, LOX, 24 h;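 as to all read-outs here: colony formation assay with 24 h exposure at 37 °C, then 7 to 10 days of regrowth, crystal violet staining of colonies, control wells given medium alone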
Method: as §1

[4] = system: CRL 1420 cells; test: colony assay of Example 1 with human pancreatic carcinoma CRL 1420 cell line; type: cell-based; settings: for Selectivity: CV-1/CRL-1420; for IC50: Homo sapiens, 24 h;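 as to all read-outs here: colony formation assay, cells exposed for 24 h then regrown 7 to 10 days without compound, colonies stained with crystal violet, control given medium alone, normal reference CV-1 monkey kidney epithelial cells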
[5] = system: EJ cells; test: colony assay of Example 1 with human bladder carcinoma EJ cell line; type: cell-based; settings: for Selectivity: CV-1/EJ; for IC50: Homo sapiens, EJ, 24 h;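 as to all read-outs here: colony formation assay with 24 h compound exposure at 37 °C, then 7–10 days drug-free regrowth, colonies stained with crystal violet, controls given medium alone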
[6] = system: human melanoma LOX; test: survival of nude mice implanted with human melanoma LOX; type: in vivo, male athymic Swiss nu/nu mouse (human tumor); settings: Mus musculus, ip, 24 h, 5 mg/kg i.p. on day 1, 4, 8, 11, 14; read-out: T/C
Method: LOX, a human melanoma cell line, grown subcutaneously in nude mice was excised, trypsinized to yield a single cell suspension using a metal grid with a […] mesh. […] Five million viable trypan blue negative cells made up in 0.1 ml of Dulbecco modified Eagle medium (DMFE) were injected into the peritoneal cavity of a male athymic Swiss nu/nu mouse. The control group and each treatment group consisted of 5 to 10 mice. Treatment was commenced the following day by intraperitoneal injection.
Ten control mice received 0.25 ml of 2% dextrose on these days the treated groups were injected with the compounds of this invention. […] T/C is the ratio, expressed as a percentage of the mean survival age of the treated group to the mean survival age of the untreated control group.

[7] = CV-1, Table III, normal monkey kidney epithelial cells, colony count after 7 to 10 days
[8] = Table V, human melanoma, 24 hours treatment
[9] = Table VII, human pancreatic carcinoma, 24 hours treatment
[10] = Table III, normal monkey kidney epithelial cells, colony count after 7 to 10 days
[11] = Table IV, human bladder carcinoma, 24 hours treatment

Row | SMILES | Selectivity (ratio of IC50 for CV-1 and IC50 for CX-1) ([1]; CV-1/CX-1) | IC50 [1] [µg/mL] | IC50 [2, 7] [µg/mL] | also measured
1 | CCn1c(=Cc2sc3ccc(Cl)cc3[n+]2CC)sc(=C2Sc3ccccc3N2C)c1=O [Compound 40] | 200 | 0.03 | 6 | –
2 | CCn1c(=CC2=[N+](C)c3ccccc3C2(C)C)sc(=C2Sc3ccccc3N2C)c1=O [Compound 17] | 167 | 0.06 | 10 | –
3 | CCn1c(=Cc2sc3ccc4ccccc4c3[n+]2CC)sc(=C2Oc3ccc(Cl)cc3N2C)c1=O [Compound 209] | – | – | – | Selectivity [3]: 100; IC50 [3, 8]: 0.2 µg/mL; Selectivity [4]: 200; IC50 [4, 9]: 0.1 µg/mL; IC50 ([2]; CV-1, 24 h, Table V): 20 µg/mL; IC50 ([2]; CV-1, 24 h, Table VII): 20 µg/mL
4 | CCn1c(=Cc2oc3ccccc3[n+]2CC)sc(=C2Sc3ccccc3N2C)c1=O [Compound 38] | 333 | – | – | CX-1 (IC50) [1]: 0.03 µg/mL; CV-1 (IC50) [2, 10]: 10 µg/mL
5 | CCn1c(=Cc2sc3ccc(OC)cc3[n+]2CC)sc(=C2Sc3ccc4ccccc4c3N2C)c1=O [Compound 95] | 500 | 0.04 | 20 | –
6 | CCn1c(=Cc2sc3ccccc3[n+]2CC)sc(=C2Sc3ccc(OC)cc3N2C)c1=O [Compound 47] | 150 | 0.04 | 6 | –
7 | CCn1c(=Cc2oc3ccccc3[n+]2C)sc(=C2Sc3ccccc3N2C)c1=O [Compound 12] | > 667 | – | – | Selectivity [5]: > 400; EJ (IC50) [5, 11]: 0.05 µg/mL; Selectivity [3]: > 300; LOX(IC50) [3, 8]: < 0.1 µg/mL; CX-1 (IC50) [1]: 0.03 µg/mL; Selectivity [4]: 222; CRL-1420(IC50) [4, 9]: 0.09 µg/mL; CV-1 (IC50) [2, 10]: > 20 µg/mL; CV-1 (IC50) ([2]; Table IV): > 20 µg/mL; CV-1 (IC50) ([2]; Table V): > 30 µg/mL; CV-1 (IC50) ([2]; Table VII): 20 µg/mL
8 | CC[n+]1c(C=c2sc(=C3Sc4ccc5ccccc5c4N3C)c(=O)n2CC(=O)OC)sc2c3ccccc3ccc21 [Compound 311] | 667 | 0.03 | 20 | Selectivity [5]: 400; IC50 [5, 11]: 0.05 µg/mL; IC50 ([2]; CV-1, 24 h, Table IV): 20 µg/mL
9 | CCn1c(=Cc2cc[n+](CC)c3ccccc23)sc(=C2Sc3ccccc3N2C)c1=O [Compound 24] | 150 | 0.01 | 1.5 | –
10 | CCn1c(=Cc2sc3ccc4ccccc4c3[n+]2CC)sc(=C2Sc3c(ccc4ccccc34)N2C)c1=O [Compound 255] | 100 | 0.05 | 5 | –
11 | CCn1c(=Cc2sc3ccc4ccccc4c3[n+]2CC)sc(=C2Sc3ccc(Cl)cc3N2C)c1=O [Compound 223] | 200 | 0.1 | 20 | –
12 | CCn1c(=Cc2sc3ccccc3[n+]2CC)sc(=C2Oc3ccc(OC)cc3N2C)c1=O [Compound 105] | 120 | 0.05 | 6 | –
13 | CCn1c(=Cc2cccc[n+]2CC)sc(=C2Sc3ccccc3N2C)c1=O [Compound 283] | – | – | – | response vs control in vivo at 5 mg/kg [6]: > 350%
14 | CCN1C(=CC=c2sc(=Cc3sc4c([n+]3CC)CCCC4)n(CC)c2=O)Oc2ccccc21 [C, reference compound] | 50 | 0.04 | 2 | –
15 | CCn1c(=Cc2sc3ccccc3[n+]2CC)sc(=C2Sc3c(ccc4ccccc34)N2C)c1=O [Compound 98] | 160 | 0.05 | 8 | –
16 | CCn1c(=Cc2ccc3ccccc3[n+]2CC)sc(=C2Sc3ccccc3N2C)c1=O [Compound 20] | – | 0.02 | 2 | Selectivity (ratio of IC50 for CV-1 and IC50 for CX-1) [1]: 100
17 | CCn1c(=Cc2sc3c([n+]2CC)-c2ccccc2CC3)sc(=C2Oc3ccc(Cl)cc3N2C)c1=O [Compound 213] | – | – | – | Selectivity [5]: 200; IC50 [5, 11]: 0.03 µg/mL; Selectivity [3]: 200; IC50 [3, 8]: 0.03 µg/mL; Selectivity [4]: 200; IC50 [4, 9]: 0.03 µg/mL; IC50 ([2]; CV-1, 24 h, Table IV): 6 µg/mL; IC50 ([2]; CV-1, 24 h, Table V): 6 µg/mL; IC50 ([2]; CV-1, 24 h, Table VII): 6 µg/mL
